Experimental data: patent US20250154548A1, “CONTROL OF ENZYMATIC NUCLEIC ACID SYNTHESIS VIA ELECTROCHEMICAL MEANS” (The Charles Stark Draper Laboratory, Inc., priority 2023, published 2025)

What was measured:
[1] = target: T1, TdT-dNTP conjugates (C7-C) (Mus musculus, UniProt P09838, C155A/C188A/C216N/C302P/C378E/C404A/C438A/D179A/D325G/D356E/D411H/D441E/D501E/E183G/E226Q/E418G/E487R/F267Y/F368W/G227E/G413Q/H416D/I229L/K247Q/K250C/K276D/L167K/L260P/L327T/L381Q/M192R/M313Q/M339K/M471L/N304T/Q166K/Q278R/Q287R/Q359K/Q371K/Q390L/R483N/S195A/S223R/S248A/S275E/S282T/S312E/T321Q/T465R/V311I/V320W/V484T); test: Bead-based TdT extension assay; type: biochemical; conditions: for inhibition of TdT extension: various chelator concentrations
T1 construct: nucleotide (dNTP) covalently tethered through a cleavable linker; That it is dCTP and sits on Cys102 is my inference from the name C7-C and from K102C
Method: Extension assay was performed for 2 minutes at 37° C.
The ability of chelators to inhibit stepwise addition of nucleotides via TdT-dNTP conjugates was tested using a bead based assay: Magnetic beads (Dynabeads MyOne streptavidin beads (C1)) were functionalized with biotinylated, double-stranded DNA (dsDNA) that contains a 3′ 30-base overhang, which serves as the seed oligo for extension. Beads were prepared in buffer (20 mM potassium phosphate, 100 mM NaCl, pH 6.5) and washed with 3 times with Superblock prior to use. TdT-dNTP conjugates were prepared at 10 μM concentrations in buffer solution (20 mM potassium phosphate buffer, 100 mM NaCl, pH 6.5). Chelators and MnCl2 solutions were prepared at appropriate ratios (in water) so that final reaction concentrations were at 125 nM in MnCl2 and incubated for 10 minutes at room temperature. Once incubation was complete, TdT-dNTP conjugates were added to the chelator/MnCl2 solutions so that TdT-dNTP conjugates were at a final concentration of 5 μM. As controls, solutions with no chelator or with TCEP (for recovery activity) were also prepared.
Once all reagents were prepared, ds-DNA functionalized beads (10 μL volume) were added to low-bind Eppendorf tubes, followed by the TdT-dNTP conjugate/chelator/MnCl2 solution (50 μL total reaction volume). The tubes were incubated at 37° C. for 2 min, then tubes were placed on ice for 1 min. The beads were washed by placing tubes on a magnetic tube rack three times with 1 mL of buffer (20 mM potassium phosphate, 100 mM NaCl, pH 6.5). To elute the ssDNA from the washed beads, the tubes were placed in the magnetic rack, and the supernatant was removed and replaced with 0.1 M NaOH (aq). After thorough mixing with a pipette and re-settling of the beads using the magnetic rack, the supernatant was transferred to a fresh low-bind tube, and 50 μL of 0.1 M HCl (aq) was added to neutralize the solution.
Sequencing sample preparation began with polyadenylation (for sequences expected to end in thymine, cytosine, or guanine) or the addition of a poly(T) tail (for sequences expected to end in adenine) to the 3′ end of each DNA sample using commercial TdT. The samples were then amplified using primers that bind to a conserved 5′ sequence and the complementary 3′ tail while incorporating Illumina sequencing priming sites into the synthesized amplicons. This step was performed using qPCR in order to achieve optimal amplification of all samples regardless of input DNA concentration. A portion of each PCR product was analyzed by gel electrophoresis to confirm the size and relative abundance of the amplicons. The products of all samples were then normalized based on relative abundance and used as template for a second PCR reaction, which incorporated Illumina flow cell adaptors and a variable index into each sample. The products of the final PCR reaction were characterized by gel electrophoresis and all indexed samples were pooled together proportionally based on relative abundance. Size selection and purification of the pooled library was performed by DNA gel extraction and the final library was analyzed by Qubit dsDNA HS assay and Tapestation D1000 screentape to determine the final molar concentration. The library was then diluted, denatured and sequenced following standard Illumina protocols.

wild-type TdT = wild-type TdT (Mus musculus, UniProt P09838); test: TdT extension assay with DNA-intercalating dye (SYTO 13); type: biochemical; conditions: metal cofactor MnCl2 pre-incubated with chelator; free nucleotides, ssDNA oligomer
Method: FIG. 14 provides data from an extension assay wherein wild-type TdT is incubated with a single-stranded DNA oligomer in the presence of free nucleotides and a DNA-intercalating dye (SYTO 13). As DNA synthesis occurs, fluorescent signal increases as more interactions of the intercalating dye with the ssDNA leads to higher fluorescent signal.

[2] = FLPA fluorescence intensity versus bulk electrolyte pH calibration; type: physicochemical; conditions: from fluorescence intensity vs pH
Text: FIGS. 3A-C show how voltage-induced pH change can be visualized in real-time with a freely diffusing non-electroactive fluorescent probe. […] A large Pt counter electrode (CE, anode) surrounds a smaller Pt working electrode (WE, cathode). The two electrodes are separated by a 10 μm dielectric SiO2 region. The WE (410 μm×510 μm) contains a microarray of 300-nm diameter wells that cannot be optically resolved but appear as a smaller square region (˜250 μm×325 μm), made brighter by optical interference. The microarray is used as the region of interest (ROI) for all subsequent analysis. Images were acquired with an Excelitas X-Cite Xylis XT720S (360-720 nm LED) source, 1s exposure time, and GFP (525/50 nm) filter set.
Data points represent the average of three technical replicates, and error bars represent one standard deviation. The intensity follows a sigmoidal relationship as the fraction of deprotonated, fluorescent FLPA (inset) increases with pH (pKa˜6.5). Thus, FLPA is sensitive to an acid-OFF/neutral-ON pH switch over pH 5 to 8. The visualization strategy is amenable to other non-electroactive probes with different pKa values.

[3] = 5 μM C7-C, 0.250 mM Mn2+, 2 minutes at 37° C.

wild-type TdT, sequence (P09838 149-510): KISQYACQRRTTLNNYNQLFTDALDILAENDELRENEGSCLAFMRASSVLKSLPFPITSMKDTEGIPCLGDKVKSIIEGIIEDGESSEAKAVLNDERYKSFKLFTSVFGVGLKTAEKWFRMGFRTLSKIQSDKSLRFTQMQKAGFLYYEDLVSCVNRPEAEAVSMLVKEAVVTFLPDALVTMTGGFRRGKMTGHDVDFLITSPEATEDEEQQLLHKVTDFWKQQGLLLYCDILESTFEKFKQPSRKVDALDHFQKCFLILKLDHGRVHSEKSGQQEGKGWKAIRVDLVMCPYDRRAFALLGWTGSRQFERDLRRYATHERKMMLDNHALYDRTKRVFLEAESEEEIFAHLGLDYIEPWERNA
T1 sequence (P09838 149-510 with the stated changes): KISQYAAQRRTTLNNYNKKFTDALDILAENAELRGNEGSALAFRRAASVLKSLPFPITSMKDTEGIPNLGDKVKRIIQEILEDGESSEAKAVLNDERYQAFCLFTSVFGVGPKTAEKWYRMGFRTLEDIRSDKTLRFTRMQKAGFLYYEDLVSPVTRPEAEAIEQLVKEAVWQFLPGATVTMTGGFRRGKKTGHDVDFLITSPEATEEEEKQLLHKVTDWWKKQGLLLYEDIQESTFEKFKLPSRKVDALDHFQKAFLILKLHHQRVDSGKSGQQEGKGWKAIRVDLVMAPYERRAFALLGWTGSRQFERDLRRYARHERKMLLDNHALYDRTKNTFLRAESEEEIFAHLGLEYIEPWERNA

| Compound | inhibition of TdT extension [1, 3] | assayed ssDNA growth (fluorescent signal) (wild-type TdT) | fraction of extended sequences ([1]; various chelator:metal ratios, 5 μM C7-C, 0.250 mM Mn2+, 2 minutes at 37° C.) | pKa [2] | TdT activity with chelator pre-incubated with reducing agent TCEP ([1]; TCEP reducing agent added, chelator cleaved) |
| --- | --- | --- | --- | --- | --- |
| c1ccc(SSc2ccccn2)nc1 [DTP, 2,2′-dithiopyridine, reference compound] | inhibition dependence on feed ratio of metal to inhibitor |  |  |  |  |
| O=C(O)CN(CCN(CC(=O)O)CC(=O)O)CC(=O)O [EDTA, Ethylenediaminetetraacetic Acid, reference compound] |  | little-to-no-assayed ssDNA growth | markedly decreased |  |  |
| NCCOCCOCCOCCOCCOCCOCCNC(=S)Nc1ccc2c(c1)C(=O)OC21c2ccc(O)cc2Oc2cc(O)ccc21 [FLPA, fluorescein-PEG6-amine] |  |  |  | ~6.5 |  |
| O=C(NCCc1ccc(O)c(O)c1)OCCSSCCOC(=O)NCCc1ccc(O)c(O)c1 [catechol 1, disulfanediylbis(ethane-2,1-diyl) bis((3,4-dihydroxyphenethyl)carbamate)] | inhibition dependence on feed ratio of metal to inhibitor and choice of chelator | no assayed ssDNA growth is observed |  |  | TdT activity is recovered |
| O=C(O)CN(CC(=O)O)C(=O)OCCSSCCOC(=O)N(CC(=O)O)CC(=O)O [tetraacid 2, 3,14-bis(carboxymethyl)-4,13-dioxo-5,12-dioxa-8,9-dithia-3,14-diazahexadecanedioic acid] | inhibition dependence on feed ratio of metal to inhibitor and choice of chelator | no assayed ssDNA growth is observed |  |  |  |
